Experimental findings from patent US11497757B2, “Silanol based therapeutic payloads” (BlinkBio, Inc., priority 2016, dated 2022) are described below.

The subject of test [1] is KB cells. The experiment in a line: CellTiter-Glo cell viability, washout protocol. Format: cell-based. Particulars: for EC50: washout protocol: 2 h incubation, wash, additional 70 h, siloxane based conjugates; for % Kill (48 h): washout protocol. As for the experimental part: Washout protocol: KB cells in culture were seeded in white clear bottom 96-well tissue culture plate at a density of 5,000 cells per well in a folate free RPMI media with 10% FBS a day prior to compound addition. Cells were counted visually with a hemocytometer and diluted accordingly to obtain the desired density. Cells were allowed to incubate for 24 hours in a humidified CO2 atmosphere in an incubator at 37° C. The spent media was aspirated and replenished with 100 μL of fresh media containing a 3-fold serial dilution of compound with concentrations ranging from 0.3 to 2000 nM and with a final DMSO concentration of 0.1%. Blank wells without compound were also treated with media containing 0.1% DMSO. […] […] At the end of 70 h, the spent media was removed and cells were washed once with fresh media and then suspended 100 μL of PBS. 100 μL of constituted Cell titer-glo reagent was added to each well and luminescence was recorded with a VICTOR plate reader according to manufacturers' protocol.

Test [2] deals with Folate receptor alpha expressing KB cells. The test is described as follows: Confocal imaging study demonstrating endocytosis and Si-O cleavage. The note with it: 50 nM. The test is classed as cell-based. As for the experimental part:
Example 51 as shown above contains a folate receptor targeting ligand, a spacer moiety, a siloxane core and two different fluorescent dyes (BODIPY and rhodamine) positioned on either side of the siloxane core. Folate receptor alpha expressing KB cells were grown in folic acid free media. The cells were incubated for 30 minutes on ice with 50 nM of Example 51, washed with fresh culture medium and then incubated in media at 37° C. for the desired length of time. The fate of both dyes was simultaneously monitored using confocal microscopy using Zeiss LSM 780 laser scanning microscope.

Broadly, the EC50 is the midpoint of the concentration-response curve. Low values mean an effect from little substance, high ones a need for much substance.

For `CC[C@]1(O)C[C@@H]2C[N@@](CCc3c([nH]c4ccccc34)[C@@](C(=O)OC)(c3cc4c(cc3OC)N(C)[C@H]3[C@@](O)(C(=O)NCCC[Si](C)(C)O[Si](C)(C)CSc5ncc(Cn6cc(COCCOCCOCCOCCOCCOCCNC(=O)CC[C@H](NC(=O)c7ccc(NCc8cnc9nc(N)[nH]c(=O)c9n8)cc7)C(=O)O)nn6)cn5)[C@H](O)[C@]5(CC)C=CCN6CC[C@]43[C@@H]65)C2)C1` [Example 24], in test [1], the half-maximal effective concentration (EC50) was approximately 265 nM and the “% Kill (48 h)” value worked out at 84%.

As for `CC[C@]1(O)C[C@@H]2CN(CCc3c([nH]c4ccccc34)[C@@](C(=O)OC)(c3cc4c(cc3OC)N(C)[C@H]3[C@@](O)(C(=O)NCCC[Si](C)(C)O[Si](C)(C)CSc5ncc(Cn6cc(C[C@H](NC(=O)[C@H](CC(=O)O)NC(=O)[C@H](CC(=O)O)NC(=O)[C@H](CCCNC(=N)N)NC(=O)[C@H](CC(=O)O)NC(=O)CC[C@H](NC(=O)c7ccc(NCc8cnc9nc(N)[nH]c(=O)c9n8)cc7)C(=O)O)C(=O)O)nn6)cn5)[C@H](O)[C@]5(CC)C=CCN6CC[C@]43[C@@H]65)C2)C1` [Example 28], in test [1], the EC50 is approximately 156 nM and the “% Kill (48 h)” value is reported as 86%.

Turning to `CC[C@H](C)[C@@H]([C@@H](CC(=O)N1CCC[C@H]1[C@H](OC)[C@@H](C)C(=O)N[C@@H](Cc1ccccc1)C(=O)O)OC)N(C)C(=O)[C@@H](NC(=O)[C@H](C(C)C)N(C)C(=O)CCC[Si](C)(C)O[Si](C)(C)c1cccc(CC(=O)NCCOCCOCCOCCOCCOCCn2cc(COCC(COCc3cn(CCOCCOCCOCCOCCOCCNC(=O)Cc4cccc([Si](C)(C)O[Si](C)(C)CCCC(=O)N(C)[C@H](C(=O)N[C@H](C(=O)N(C)[C@@H]([C@@H](C)CC)[C@@H](CC(=O)N5CCC[C@H]5[C@H](OC)[C@@H](C)C(=O)N[C@@H](Cc5ccccc5)C(=O)O)OC)C(C)C)C(C)C)c4)nn3)(COCc3cn(CCOCCOCCOCCOCCOCCNC(=O)Cc4cccc([Si](C)(C)O[Si](C)(C)CCCC(=O)N(C)[C@H](C(=O)N[C@H](C(=O)N(C)[C@@H]([C@@H](C)CC)[C@@H](CC(=O)N5CCC[C@H]5[C@H](OC)[C@@H](C)C(=O)N[C@@H](Cc5ccccc5)C(=O)O)OC)C(C)C)C(C)C)c4)nn3)NC(=O)CCOCCOCCOCCOCCOCCOCCNC(=O)CC[C@H](NC(=O)c3ccc(NCc4cnc5nc(N)[nH]c(=O)c5n4)cc3)C(=O)O)nn2)c1)C(C)C` [Example 35, Folate-PEG-Adaptor-PhenylSiLinker-TripleAuristatin], the 50% effective concentration (EC50) in test [1] was approximately 8 nM.

Consider `CCN(CC)c1ccc2c(-c3ccc(S(=O)(=O)NCc4cnc(SC[Si](C)(C)O[Si](C)(C)CCCN5C(=O)CC(SC[C@H](NC(=O)[C@H](CNC(=O)CCC6=[N+]7C(=Cc8c(C)cc(C)n8[B-]7(F)F)C=C6)NC(=O)[C@H](CC(=O)O)NC(=O)CC[C@H](NC(=O)c6ccc(NCc7cnc8nc(N)[nH]c(=O)c8n7)cc6)C(=O)O)C(=O)O)C5=O)nc4)cc3S(=O)(=O)[O-])c3ccc(=[N+](CC)CC)cc-3oc2c1` (some centres unmarked) [Example 51], for which the “Folate receptor binding on cell surface (colocalization of dyes)” value in test [2] (t=0) is on record as “bound to the folate receptor on the cell surface”. Moreover, in test [2] (t=30 min, 37° C.), the “Cleavage of the siloxane core (color separation of the two dyes)” value is on record as “cleavage of the siloxane core was observed” and the “Endocytosis of intact conjugate into the cell” value is “endocytosis of intact Example 51 into the cell was observed”.
